Test system: 233499-124-R-J3-PDC complex spheroid growth
Test: Anticancer human tumor 233499-124-R-J3-PDC patient-derived colon adenocarcinoma cell line growth inhibition [AhR]
Settings: for IC50: curve of first compound; for viability, T/C: stronger effect = lower value
Excerpt: Multicellular complex tumor spheroid response to aryl hydrocarbon receptor antagonists in combination with a variety of drugs and investigational agents in selected tumor cell lines
The current study was undertaken to assess response to aryl hydrocarbon receptor antagonists in combination with standard-of-care drugs and investigational agents in solid tumor complex spheroid models. Complex spheroids include a stromal component modeled by human endothelial cells (HUVEC) and fibroblasts modeled by human mesenchymal stem cells (MSCs). The concentration ranges selected for each drug and investigational agent were based upon clinically achievable concentrations if the clinical Cmax of the agent was known.
Compounds. The drugs and investigational agents: BAY 2416964 (NSC825713), GNF351 (NSC835774), CH-223191 (NSC835775), CPI-455 (NSC825282), aza-TdCyd (NSC777586), decitabine (NSC127716), belinostat (NSC758774), entinostat (NSC756642), pevonedistat (NSC761192), tazemetostat (NSC777109), talazoparib (NSC765396), olaparib (NSC753686), selinexor (NSC780203), nedisertib (M3814, NSC802822), bortezomib (NSC756655), venetoclax (NSC766270), doxorubicin (NSC123127), elimusertib (BAY189344, NSC800525), ceralasertib (AZD6738, NSC777638), TAK-243 (NSC785004), alisertib (NSC759677), etoposide (NSC141540), topotecan (NSC609699), eribulin (NSC707389), gemcitabine (NSC613327), carboplatin (NSC241240), cisplatin (NSC119875), and SN-38 (NSC673596) were obtained from the National Cancer Institute (NCI) Developmental Therapeutics Program Chemical Repository (32). The FDA-approved anticancer drug set is available from the Developmental Therapeutics Program at https://dtp.cancer.gov/organization/dscb/obtaining/available plates.htm. […] The stock solutions were prepared in dimethyl sulfoxide (DMSO, Sigma-Aldrich, St. Louis, MO, cat. D2650), except for the platinum compounds which were prepared in saline (Quality Biological, Gaithersburg, MD, cat. 114-055-101), at 800-fold the tested concentration and stored at -70 degrees C prior to their use. All drugs and investigational agents were tested over a range starting from a high concentration at or near the clinical Cmax and decreasing in half-log increments. If the clinical Cmax for an agent had not been determined, the highest concentration tested was 10 microM (Table 1).
Cell Culture. All cells were maintained in an incubator at 37 degrees C and 5% CO2 with 95% humidity. The PDC lines were cultured according to standard operating procedures established by the NCI PDMR (https://pdmr.cancer.gov). Briefly, all PDCs were thawed and cultured in Matrigel-coated flasks prepared with a working solution of 1X Ham's F-12 nutrient mix, without supplementation (Invitrogen, Waltham, MA, cat. 11765054), 100 U/mL penicillin-streptomycin (Invitrogen, cat. 15140122), and 2.5% Matrigel (Corning Inc., Corning, NY, cat. 354248) for the first three passages. All PDCs were cultured in complete DMEM/F-12 media containing advanced DMEM/F-12 (Invitrogen, cat. 12634028), 4.9% defined fetal bovine serum, heat inactivated (HyClone Laboratories Inc., Logan, UT, cat. SH30070.03HI), 389 ng/mL hydrocortisone (Sigma-Aldrich, cat. H4001), 9.7 ng/mL human EGF recombinant protein (Invitrogen, cat. PHG0313), 23.4 microg/mL adenine (Sigma-Aldrich, cat. A2786), 97.3 U/mL penicillin-streptomycin (Invitrogen, cat. 15140122), 1.9 mM L-glutamine (Invitrogen, cat. 25030081), and 9.7 microM Y-27632 dihydrochloride (Tocris Bioscience, Bristol, United Kingdom, cat. 1254). The PDCs were cultured in complete DMEM/F12 media without 10 microM Y-27632 dihydrochloride for at least two passages prior to the screen. The established cell lines NCI-H1341 and […] were cultured in DMEM/F-12, HEPES (Invitrogen, cat. 11330032), 5% defined fetal bovine serum (HyClone Laboratories Inc., cat. SH30070.03), ITS premix universal culture supplement [insulin (5 microg/mL), transferrin (5 microg/mL), and selenious acid (5 ng/mL)] […]

[1] = second compound 0.1 µM, first compound 0.00316 µM
[2] = second compound 0.1 µM, first compound 0.01 µM
[3] = second compound 0.1 µM, first compound 0.0316 µM
[4] = second compound 0.1 µM, first compound 0.1 µM
[5] = second compound 0.316 µM, first compound 0.00316 µM
[6] = second compound 0.316 µM, first compound 0.01 µM
[7] = second compound 0.316 µM, first compound 0.0316 µM
[8] = second compound 0.316 µM, first compound 0.1 µM
[9] = second compound 1 µM, first compound 0.00316 µM
[10] = second compound 1 µM, first compound 0.01 µM
[11] = second compound 1 µM, first compound 0.0316 µM
[12] = second compound 1 µM, first compound 0.1 µM
[13] = second compound 3.16 µM, first compound 0.00316 µM
[14] = second compound 3.16 µM, first compound 0.01 µM
[15] = second compound 3.16 µM, first compound 0.0316 µM
[16] = second compound 3.16 µM, first compound 0.1 µM
[17] = second compound 10 µM, first compound 0.00316 µM
[18] = second compound 10 µM, first compound 0.01 µM
[19] = second compound 10 µM, first compound 0.0316 µM
[20] = second compound 10 µM, first compound 0.1 µM
[21] = second compound 0.1 µM, first compound 0.316 µM
[22] = second compound 0.1 µM, first compound 1 µM
[23] = second compound 0.1 µM, first compound 3.16 µM
[24] = second compound 0.1 µM, first compound 10 µM
[25] = second compound 0.316 µM, first compound 0.316 µM
[26] = second compound 0.316 µM, first compound 1 µM
[27] = second compound 0.316 µM, first compound 3.16 µM
[28] = second compound 0.316 µM, first compound 10 µM
[29] = second compound 1 µM, first compound 0.316 µM
[30] = second compound 1 µM, first compound 1 µM
[31] = second compound 1 µM, first compound 3.16 µM
[32] = second compound 1 µM, first compound 10 µM
[33] = second compound 3.16 µM, first compound 0.316 µM
[34] = second compound 3.16 µM, first compound 1 µM
[35] = second compound 3.16 µM, first compound 3.16 µM
[36] = second compound 3.16 µM, first compound 10 µM
[37] = second compound 10 µM, first compound 0.316 µM
[38] = second compound 10 µM, first compound 1 µM
[39] = second compound 10 µM, first compound 3.16 µM
[40] = second compound 10 µM, first compound 10 µM
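Further: spheroids exposed to agents for seven days before reading.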

## CC[C@@]1(O)C(=O)OCc2c1cc1n(c2=O)Cc2cc3c(CN(C)C)c(O)ccc3nc2-1 + CC(CO)NC(=O)c1cc(-c2ccc(Cl)cc2)nn(-c2cnn(C)c2)c1=O
Second compound 0.1 µM
  IC50: > 0.1 µM
Second compound 0.316 µM
  IC50: > 0.1 µM
Second compound 1 µM
  IC50: > 0.1 µM
Second compound 3.16 µM
  IC50: > 0.1 µM
Second compound 10 µM
  IC50: > 0.1 µM
Second compound 0.1 µM, first compound 0.000316 µM
  viability, T/C: 99.5%
Second compound 0.1 µM, first compound 0.001 µM
  viability, T/C: 92.5%
[1]
  viability, T/C: 95.3%
[2]
  viability, T/C: 87.2%
[3]
  viability, T/C: 84.1%
[4]
  viability, T/C: 57.7%
Second compound 0.316 µM, first compound 0.000316 µM
  viability, T/C: 87.4%
Second compound 0.316 µM, first compound 0.001 µM
  viability, T/C: 94.6%
[5]
  viability, T/C: 89%
[6]
  viability, T/C: 99.5%
[7]
  viability, T/C: 89.6%
[8]
  viability, T/C: 68.9%
Second compound 1 µM, first compound 0.000316 µM
  viability, T/C: 93%
Second compound 1 µM, first compound 0.001 µM
  viability, T/C: 90%
[9]
  viability, T/C: 89.3%
[10]
  viability, T/C: 88.8%
[11]
  viability, T/C: 81.9%
[12]
  viability, T/C: 65.3%
Second compound 3.16 µM, first compound 0.000316 µM
  viability, T/C: 81.3%
Second compound 3.16 µM, first compound 0.001 µM
  viability, T/C: 82.3%
[13]
  viability, T/C: 84.6%
[14]
  viability, T/C: 99.6%
[15]
  viability, T/C: 88%
[16]
  viability, T/C: 75%
Second compound 10 µM, first compound 0.000316 µM
  viability, T/C: 81.5%
Second compound 10 µM, first compound 0.001 µM
  viability, T/C: 80.1%
[17]
  viability, T/C: 81.9%
[18]
  viability, T/C: 68.6%
[19]
  viability, T/C: 54.9%
[20]
  viability, T/C: 56.1%

## COc1cc(C2c3cc4c(cc3C(OC3OC5COC(C)OC5C(O)C3O)C3COC(=O)C23)OCO4)cc(OC)c1O (stereo not given) + CC(CO)NC(=O)c1cc(-c2ccc(Cl)cc2)nn(-c2cnn(C)c2)c1=O
Second compound 0.1 µM
  IC50: > 10 µM
Second compound 0.316 µM
  IC50: > 10 µM
Second compound 1 µM
  IC50: > 10 µM
Second compound 3.16 µM
  IC50: > 10 µM
Second compound 10 µM
  IC50: > 10 µM
[3]
  viability, T/C: 102%
[4]
  viability, T/C: 88.7%
[21]
  viability, T/C: 93.6%
[22]
  viability, T/C: 90.1%
[23]
  viability, T/C: 98.2%
[24]
  viability, T/C: 77.7%
[7]
  viability, T/C: 93.6%
[8]
  viability, T/C: 97.5%
[25]
  viability, T/C: 96.6%
[26]
  viability, T/C: 88.9%
[27]
  viability, T/C: 83.7%
[28]
  viability, T/C: 76.5%
[11]
  viability, T/C: 91%
[12]
  viability, T/C: 94%
[29]
  viability, T/C: 94.2%
[30]
  viability, T/C: 98.4%
[31]
  viability, T/C: 81.4%
[32]
  viability, T/C: 72.8%
[15]
  viability, T/C: 99.2%
[16]
  viability, T/C: 95.5%
[33]
  viability, T/C: 75.2%
[34]
  viability, T/C: 93.5%
[35]
  viability, T/C: 91.5%
[36]
  viability, T/C: 83.9%
[19]
  viability, T/C: 92.7%
[20]
  viability, T/C: 95.5%
[37]
  viability, T/C: 81.8%
[38]
  viability, T/C: 77.6%
[39]
  viability, T/C: 67.4%
[40]
  viability, T/C: 57.3%

## COc1cccc2c1C(=O)c1c(O)c3c(c(O)c1C2=O)CC(O)(C(=O)CO)CC3OC1CC(N)C(O)C(C)O1 (stereo not given) + CC(CO)NC(=O)c1cc(-c2ccc(Cl)cc2)nn(-c2cnn(C)c2)c1=O
Second compound 0.1 µM
  IC50: 4.49 µM
Second compound 0.316 µM
  IC50: 5.32 µM
Second compound 1 µM
  IC50: 3.76 µM
Second compound 3.16 µM
  IC50: 3.43 µM
Second compound 10 µM
  IC50: 1.62 µM
[3]
  viability, T/C: 103%
[4]
  viability, T/C: 104%
[21]
  viability, T/C: 87.8%
[22]
  viability, T/C: 78.3%
[23]
  viability, T/C: 58.3%
[24]
  viability, T/C: 31.8%
[7]
  viability, T/C: 98.3%
[8]
  viability, T/C: 100%
[25]
  viability, T/C: 90.4%
[26]
  viability, T/C: 81.6%
[27]
  viability, T/C: 65.1%
[28]
  viability, T/C: 32.5%
[11]
  viability, T/C: 96.7%
[12]
  viability, T/C: 111%
[29]
  viability, T/C: 98.4%
[30]
  viability, T/C: 70.7%
[31]
  viability, T/C: 58.9%
[32]
  viability, T/C: 27.1%
[15]
  viability, T/C: 85.6%
[16]
  viability, T/C: 99.2%
[33]
  viability, T/C: 88.7%
[34]
  viability, T/C: 57.6%
[35]
  viability, T/C: 59.3%
[36]
  viability, T/C: 27%
[19]
  viability, T/C: 90.5%
[20]
  viability, T/C: 76.1%
[37]
  viability, T/C: 72.8%
[38]
  viability, T/C: 58%
[39]
  viability, T/C: 40.3%
[40]
  viability, T/C: 6.01%

## Nc1ncn(C2CC(O)C(CO)O2)c(=O)n1 (stereo not given) + CC(CO)NC(=O)c1cc(-c2ccc(Cl)cc2)nn(-c2cnn(C)c2)c1=O
Second compound 0.1 µM
  IC50: > 1 µM
Second compound 0.316 µM
  IC50: > 1 µM
Second compound 1 µM
  IC50: > 1 µM
Second compound 3.16 µM
  IC50: > 1 µM
Second compound 10 µM
  IC50: > 1 µM
[1]
  viability, T/C: 103%
[2]
  viability, T/C: 103%
[3]
  viability, T/C: 104%
[4]
  viability, T/C: 94.1%
[21]
  viability, T/C: 93%
[22]
  viability, T/C: 94.2%
[5]
  viability, T/C: 98.2%
[6]
  viability, T/C: 103%
[7]
  viability, T/C: 79.4%
[8]
  viability, T/C: 92.9%
[25]
  viability, T/C: 91%
[26]
  viability, T/C: 95.5%
[9]
  viability, T/C: 92.3%
[10]
  viability, T/C: 94.5%
[11]
  viability, T/C: 88.9%
[12]
  viability, T/C: 72.5%
[29]
  viability, T/C: 85.6%
[30]
  viability, T/C: 91.9%
[13]
  viability, T/C: 95.9%
[14]
  viability, T/C: 104%
[15]
  viability, T/C: 90.4%
[16]
  viability, T/C: 89.5%
[33]
  viability, T/C: 87.1%
[34]
  viability, T/C: 83.2%
[17]
  viability, T/C: 89.2%
[18]
  viability, T/C: 79.9%
[19]
  viability, T/C: 89.7%
[20]
  viability, T/C: 97.7%
[37]
  viability, T/C: 85.9%
[38]
  viability, T/C: 93.2%
